Each structure is given as a SMILES string. Where a name gives a salt, the structure may show the parent alone.

This passage reports IC50 results from patent US20070049593A1 (priority 2004, published 2007).

The experiment deals with T1, HCV polymerase (Hepatitis C virus genotype 1b, UniProt P26663).
T1 construct: a region encoding NS5B (J Virol 1991 March, 65(3), 1105-13, 544 amino acids after deletion of 47 amino acids on the C-terminal); 6xHis (C); made in house; host or cells: Escherichia coli
T1 sequence (P26663 2420-2963): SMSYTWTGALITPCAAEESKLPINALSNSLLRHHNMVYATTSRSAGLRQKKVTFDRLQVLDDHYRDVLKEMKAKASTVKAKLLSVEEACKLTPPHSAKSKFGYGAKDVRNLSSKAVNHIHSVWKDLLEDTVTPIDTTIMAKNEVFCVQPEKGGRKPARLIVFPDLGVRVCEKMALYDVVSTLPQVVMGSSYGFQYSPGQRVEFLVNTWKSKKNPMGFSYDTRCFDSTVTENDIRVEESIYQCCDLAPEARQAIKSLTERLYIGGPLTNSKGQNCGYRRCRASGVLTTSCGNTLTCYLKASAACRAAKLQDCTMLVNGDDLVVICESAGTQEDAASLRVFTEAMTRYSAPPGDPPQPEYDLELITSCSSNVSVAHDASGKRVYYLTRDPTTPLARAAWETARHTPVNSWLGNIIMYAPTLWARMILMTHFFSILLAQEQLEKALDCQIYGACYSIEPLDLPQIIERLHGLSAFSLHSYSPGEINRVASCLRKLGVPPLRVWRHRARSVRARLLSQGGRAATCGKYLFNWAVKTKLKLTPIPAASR
Nature of the experiment: biochemical. Further details: species or system HCV BK strain. An excerpt:
The evaluation of the HCV polymerase inhibitory activity of the compound of the present invention is explained in the following. This polymerase is an enzyme coded for by the non-structural protein region called NS5B on the genome RNA of HCV (EMBO J., 15:12-22, 1996).
Using, as a template, a cDNA clone corresponding to the full length genome RNA of HCV BK strain obtained from the blood of a patient with hepatitis C, a region encoding NS5B (J Virol 1991 March, 65(3), 1105-13, 544 amino acids after deletion of 47 amino acids on the C-terminal) was amplified by PCR. The objective gene was prepared by adding a 6 His tag {base pair encoding 6 continuous histidine (His)}to the 3′ end thereof and transformed to Escherichia coli. The Escherichia coli capable of producing the objective protein was cultured. The obtained cells were suspended in a buffer solution and crushed in a microfluidizer.
Using a synthetic primer designed based on the sequence of HCV genomic 3′ untranslated region, a DNA fragment (148 bp) containing polyU and 3′X sequence was entirely synthesized and cloned into plasmid pBluescript SK II(+) (Stratagene). The cDNA encoding full length NS5B, which was prepared in i) above, was digested with restriction enzyme KpnI to give a cDNA fragment containing the nucleotide sequence of from the restriction enzyme cleavage site to the termination codon. This cDNA fragment was inserted into the upstream of 3′ untranslated region of the DNA in pBluescript SK II(+) and ligated. The about 450 bp inserted DNA sequence was used as a template in the preparation of substrate RNA.
RNA was synthesized (37° C., 3 hr) by run-off method using this purified DNA as a template, a promoter of pBluescript SK II(+), MEGAscript RNA synthesis kit (Ambion) and T7 RNA polymerase. DNase I was added and the mixture was incubated for 1 hr. The template DNA was removed by decomposition to give a crude RNA product.
A test substance (compound of the present invention) and a reaction mixture (30 μl) having the following composition were reacted at 25° C. for 90 min.
10% Trichloroacetic acid at 4° C. and 1% sodium pyrophosphate solution (150 μl) were added to this reaction mixture to stop the reaction. The reaction mixture was left standing in ice for 15 min to insolubilize RNA. This RNA was trapped on a glass filter (Whatman GF/C and the like) upon filtration by suction. This filter was washed with a solution containing 1% trichloroacetic acid and 0.1% sodium pyrophosphate, washed with 90% ethanol and dried. A liquid scintillation cocktail (Packard) was added and the radioactivity of RNA synthesized by the enzyme reaction was measured on a liquid scintillation counter.
The HCV polymerase inhibitory activity (IC50) of the compound of the present invention was calculated from the values of radioactivity of the enzyme reaction with and without the test substance.
Reaction mixture: HCV polymerase (0.5 μg/ml) obtained in i), substrate RNA (5 μg/ml) obtained in ii), ATP (50 μM), GTP (50 μM), CTP ([…]), UTP (2 μM), [5,6-^3H]UTP (46 Ci/mmol (Amersham), 1 μCi) 20 mM Tris-HCl (pH 7.5), EDTA (1 mM), MgCl2 (5 mM), NaCl (50 mM), DTT (1 mM), BSA (0.01%)
In general, IC50 refers to the midpoint of a concentration-inhibition curve. A high value points to lower potency. As for `COCCN(C)C(=O)CN1CCn2c(c(C3CCCCC3)c3ccc(C(=O)O)cc32)-c2ccccc21` [Example 1-37, 13-cyclohexyl-5-{[N-(2-methoxyethyl)-N-methylcarbamoyl]methyl}-6,7-dihydro-5H-benzo[5,6][1,4]diazepino[7,1-a]indole-10-carboxylic acid monohydrochloride], the IC50 is less than 100 nM.

Compound `CCN1CCN(CCN2CCn3c(c(C4CCCCC4)c4ccc(C(=O)O)cc43)-c3ccccc32)CC1` [Example 1-38, 13-cyclohexyl-5-[2-(4-ethylpiperazin-1-yl)ethyl]-6,7-dihydro-5H-benzo[5,6][1,4]diazepino[7,1-a]indole-10-carboxylic acid dihydrochloride] registered an IC50 of less than 100 nM.

On to `COC1CCN(CCN2CCn3c(c(C4CCCCC4)c4ccc(C(=O)O)cc43)-c3ccccc32)CC1` [Example 1-39, 13-cyclohexyl-5-[2-(4-methoxypiperidin-1-yl)ethyl]-6,7-dihydro-5H-benzo[5,6][1,4]diazepino[7,1-a]indole-10-carboxylic acid dihydrochloride], for which the IC50 was less than 100 nM.

The compound `COCCN(C)CCN1CCn2c(c(C3CCCCC3)c3ccc(C(=O)O)cc32)-c2ccccc21` [Example 1-40, 13-cyclohexyl-5-{2-[N-(2-methoxyethyl)-N-methylamino]ethyl}-6,7-dihydro-5H-benzo[5,6][1,4]diazepino[7,1-a]indole-10-carboxylic acid dihydrochloride] showed an IC50 of less than 100 nM.

For the compound `O=C(O)c1ccc2c(C3CCCCC3)c3n(c2c1)CCN(CCc1ccccc1)c1ccccc1-3` [Example 1-41, 13-cyclohexyl-5-phenethyl-6,7-dihydro-5H-benzo[5,6][1,4]diazepino[7,1-a]indole-10-carboxylic acid monohydrochloride], the IC50 was less than 100 nM.

Take `O=C(O)c1ccc2c(C3CCCCC3)c3n(c2c1)CCN(CCN1CCC(O)CC1)c1ccccc1-3` [Example 1-42, 13-cyclohexyl-5-[2-(4-hydroxypiperidin-1-yl)ethyl]-6,7-dihydro-5H-benzo[5,6][1,4]diazepino[7,1-a]indole-10-carboxylic acid dihydrochloride]: the IC50 was less than 100 nM.

`CN(C)C1CCN(C(=O)CN2CCn3c(c(C4CCCCC4)c4ccc(C(=O)O)cc43)-c3ccccc32)CC1` [Example 1-43, 13-cyclohexyl-5-[2-(4-dimethylaminopiperidin-1-yl)-2-oxoethyl]-6,7-dihydro-5H-benzo[5,6][1,4]diazepino[7,1-a]indole-10-carboxylic acid dihydrochloride] returned an IC50 of less than 100 nM.

Regarding `CN(C)C1CCN(CCN2CCn3c(c(C4CCCCC4)c4ccc(C(=O)O)cc43)-c3ccccc32)CC1` [Example 1-44, 13-cyclohexyl-5-[2-(4-dimethylaminopiperidin-1-yl)ethyl]-6,7-dihydro-5H-benzo[5,6][1,4]diazepino[7,1-a]indole-10-carboxylic acid trihydrochloride], the IC50 is less than 100 nM.

Take `O=C(O)c1ccc2c(C3CCCCC3)c3n(c2c1)CCN(CC(=O)N1CCS(=O)(=O)CC1)c1ccccc1-3` [Example 1-45, 13-cyclohexyl-5-[2-(1,1-dioxothiomorpholin-4-yl)-2-oxoethyl]-6,7-dihydro-5H-benzo[5,6][1,4]diazepino[7,1-a]indole-10-carboxylic acid monohydrochloride]: the IC50 is less than 100 nM.

`CCOC(=O)N1CCN(C(=O)CN2CCn3c(c(C4CCCCC4)c4ccc(C(=O)O)cc43)-c3ccccc32)CC1` [Example 1-46, 13-cyclohexyl-5-[2-(4-ethoxycarbonylpiperazin-1-yl)-2-oxoethyl]-6,7-dihydro-5H-benzo[5,6][1,4]diazepino[7,1-a]indole-10-carboxylic acid monohydrochloride] yielded an IC50 of less than 100 nM.

The compound `CC(C)N1CCN(C(=O)CN2CCn3c(c(C4CCCCC4)c4ccc(C(=O)O)cc43)-c3ccccc32)CC1` [Example 1-47, 13-cyclohexyl-5-[2-(4-isopropylpiperazin-1-yl)-2-oxoethyl]-6,7-dihydro-5H-benzo[5,6][1,4]diazepino[7,1-a]indole-10-carboxylic acid dihydrochloride] gave an IC50 of less than 100 nM.

For `CC(C)N1CCN(CCN2CCn3c(c(C4CCCCC4)c4ccc(C(=O)O)cc43)-c3ccccc32)CC1` [Example 1-48, 13-cyclohexyl-5-[2-(4-isopropylpiperazin-1-yl)ethyl]-6,7-dihydro-5H-benzo[5,6][1,4]diazepino[7,1-a]indole-10-carboxylic acid trihydrochloride], the IC50 is less than 100 nM.

For the compound `O=C(O)c1ccc2c(C3CCCCC3)c3n(c2c1)CCN(CC(=O)N1CCCOCC1)c1ccccc1-3` [Example 1-49, 13-cyclohexyl-5-[2-(1,4-oxazepan-4-yl)-2-oxoethyl]-6,7-dihydro-5H-benzo[5,6][1,4]diazepino[7,1-a]indole-10-carboxylic acid monohydrochloride], the IC50 is less than 100 nM.

For `CN1CCN(C(=O)CN2CCn3c(c(C4CCCCC4)c4ccc(C(=O)O)cc43)-c3ccccc32)CC1` [Example 1-50, 13-cyclohexyl-5-[2-(4-methylpiperazin-1-yl)-2-oxoethyl]-6,7-dihydro-5H-benzo[5,6][1,4]diazepino[7,1-a]indole-10-carboxylic acid dihydrochloride], the IC50 is less than 100 nM.

For `CC(=O)N1CCN(C(=O)CN2CCn3c(c(C4CCCCC4)c4ccc(C(=O)O)cc43)-c3ccccc32)CC1` [Example 1-51, 5-[2-(4-acetylpiperazin-1-yl)-2-oxoethyl]-13-cyclohexyl-6,7-dihydro-5H-benzo[5,6][1,4]diazepino[7,1-a]indole-10-carboxylic acid monohydrochloride], the IC50 is less than 100 nM.

Compound `CN1CCN(CCN2CCn3c(c(C4CCCCC4)c4ccc(C(=O)O)cc43)-c3ccccc32)CC1` [Example 1-52, 13-cyclohexyl-5-[2-(4-methylpiperazin-1-yl)ethyl]-6,7-dihydro-5H-benzo[5,6][1,4]diazepino[7,1-a]indole-10-carboxylic acid trihydrochloride] returned an IC50 of less than 100 nM.

Take `CN1CCCN(CCN2CCn3c(c(C4CCCCC4)c4ccc(C(=O)O)cc43)-c3ccccc32)CC1` [Example 1-53, 13-cyclohexyl-5-[2-(4-methyl-1,4-diazepan-1-yl)ethyl]-6,7-dihydro-5H-benzo[5,6][1,4]diazepino[7,1-a]indole-10-carboxylic acid trihydrochloride]: the IC50 was less than 100 nM.

On to `CN1CCCN(C(=O)CN2CCn3c(c(C4CCCCC4)c4ccc(C(=O)O)cc43)-c3ccccc32)CC1` [Example 1-54, 13-cyclohexyl-5-[2-(4-methyl-1,4-diazepan-1-yl)-2-oxoethyl]-6,7-dihydro-5H-benzo[5,6][1,4]diazepino[7,1-a]indole-10-carboxylic acid dihydrochloride], for which the IC50 was less than 100 nM.

As for `CCN1CCN(C(=O)CN2CCn3c(c(C4CCCCC4)c4ccc(C(N)=O)cc43)-c3ccccc32)CC1` [Example 1-55, 13-cyclohexyl-5-[2-(4-ethylpiperazin-1-yl)-2-oxoethyl]-6,7-dihydro-5H-benzo[5,6][1,4]diazepino[7,1-a]indole-10-carboxamide], the IC50 is less than 100 nM.

For the compound `O=C(O)c1ccc2c(C3CCCCC3)c3n(c2c1)CCN(CC(=O)N1CCCC1)c1ccccc1-3` [Example 1-56, 13-cyclohexyl-5-[2-oxo-2-(pyrrolidin-1-yl)ethyl]-6,7-dihydro-5H-benzo[5,6][1,4]diazepino[7,1-a]indole-10-carboxylic acid monohydrochloride], the IC50 is less than 100 nM.

As for `O=C(O)c1ccc2c(C3CCCCC3)c3n(c2c1)CCN(CCN1CCCC1)c1ccccc1-3` [Example 1-57, 13-cyclohexyl-5-[2-(pyrrolidin-1-yl)ethyl]-6,7-dihydro-5H-benzo[5,6][1,4]diazepino[7,1-a]indole-10-carboxylic acid dihydrochloride], the IC50 is less than 100 nM.
